Source: US12180193B2, “Accelerating fibrosarcoma protein degrading compounds and associated methods of use” (Arvinas Operations, Inc., priority 2020, dated 2024)

How the values were obtained:
BRAF V600E = biological target: T1, BRAF V600E (Homo sapiens, UniProt P15056, V600E); test: Cellular assay of target protein degradation, T-Rex 293 cells stably transfected with HA-BRAF_V600E (HA immunofluorescence, high content imaging); assay type: cell-based; details: T-Rex 293 HA-BRAF V600E; for DC50: half maximal degradation, read-out: BRaf V600E DC50; for Dmax: maximum degradation observed
T1 construct: expressed in transfected cells
Summary of the method: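 24 h compound exposure, 1 μM–0.1 nM final, 0.1% DMSO, 37 °C; cells induced with 1 ng/mL doxycycline. PFA fix, Triton permeabilize, anti-HA overnight 4 °C, Hoechst/phalloidin counterstain. Output: DC50, Dmax as % control.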

BRAF G466V = biological target: T2, BRAF G466V (Homo sapiens, UniProt P15056, G466V); test: Cellular assay of target protein degradation, T-Rex 293 cells stably transfected with HA-BRAF G466V (HA immunofluorescence, high content imaging); assay type: cell-based; details: T-Rex 293 HA-BRAF G466V; for DC50: half maximal degradation, read-out: BRaf G466V DC50; for Dmax: maximum degradation observed
T2 construct: expressed in transfected cells
Summary of the method: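 24 h compound, 30 nM–3 pM final, 0.1% DMSO, 37° C; HA-BRAF G466V induced with 0.75 ng/mL doxycycline. PFA fix, Triton perm, anti-HA + Alexa fluor secondary, Hoechst/phalloidin counterstain; imaging. DC50, Dmax (% of control).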

T1 sequence (P15056 whole entry V600E): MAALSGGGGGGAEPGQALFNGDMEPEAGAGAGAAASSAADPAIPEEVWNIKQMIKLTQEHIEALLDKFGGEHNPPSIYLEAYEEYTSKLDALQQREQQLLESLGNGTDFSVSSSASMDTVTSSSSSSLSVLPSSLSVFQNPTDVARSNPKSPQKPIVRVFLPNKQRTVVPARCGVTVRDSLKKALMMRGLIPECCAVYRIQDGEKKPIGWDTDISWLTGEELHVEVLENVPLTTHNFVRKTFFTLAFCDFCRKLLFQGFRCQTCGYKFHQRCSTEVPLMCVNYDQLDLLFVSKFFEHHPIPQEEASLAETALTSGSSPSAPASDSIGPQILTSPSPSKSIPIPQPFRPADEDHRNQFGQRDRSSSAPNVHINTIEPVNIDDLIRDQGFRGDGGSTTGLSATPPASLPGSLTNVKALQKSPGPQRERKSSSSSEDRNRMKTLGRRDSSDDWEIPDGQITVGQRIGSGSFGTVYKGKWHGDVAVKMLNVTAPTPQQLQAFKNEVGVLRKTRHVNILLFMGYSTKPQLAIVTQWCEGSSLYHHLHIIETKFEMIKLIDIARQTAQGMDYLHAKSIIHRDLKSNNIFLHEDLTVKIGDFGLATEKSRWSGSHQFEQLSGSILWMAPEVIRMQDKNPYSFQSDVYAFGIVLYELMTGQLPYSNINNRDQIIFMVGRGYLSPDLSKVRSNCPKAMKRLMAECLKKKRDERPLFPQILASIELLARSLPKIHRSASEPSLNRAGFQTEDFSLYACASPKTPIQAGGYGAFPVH
T2 sequence (P15056 whole entry G466V): as the sequence (P15056 whole entry V600E) above, with G466V, E600V counted along it

SMILES	DC50 (BRAF V600E) [nM]	Dmax (BRAF V600E) [%]	DC50 (BRAF G466V) [nM]	Dmax (BRAF G466V) [%]
O=C1CC[C@H](N2Cc3cc([C@@H](O)CCN4CCC(c5ccc(-c6cnc7[nH]cc(C(=O)c8c(F)ccc(NS(=O)(=O)N9CC[C@@H](F)C9)c8F)c7c6)cc5)CC4)ccc3C2=O)C(=O)N1 [Compound 71, (3R)-N-{3-[5-(4-{1-[(3S)-3-{2-[(3S)-2,6-dioxopiperidin-3-yl]-1-oxo-2,3-dihydro-1H-isoindol-5-yl}-3-hydroxypropyl]piperidin-4-yl}phenyl)-1H-pyrrolo[2,3-b]pyridine-3-carbonyl]-2,4-difluorophenyl}-3-fluoropyrrolidine-1-sulfonamide]	5 to 50	35 to 70	1 to 10	> 70
O=C1CC[C@@H](N2Cc3cc([C@@H](O)CCN4CCC(c5ccc(-c6cnc7[nH]cc(C(=O)c8c(F)ccc(NS(=O)(=O)N9CC[C@@H](F)C9)c8F)c7c6)cc5)CC4)ccc3C2=O)C(=O)N1 [Compound 72, (3R)-N-{3-[5-(4-{1-[(3S)-3-{2-[(3R)-2,6-dioxopiperidin-3-yl]-1-oxo-2,3-dihydro-1H-isoindol-5-yl}-3-hydroxypropyl]piperidin-4-yl}phenyl)-1H-pyrrolo[2,3-b]pyridine-3-carbonyl]-2,4-difluorophenyl}-3-fluoropyrrolidine-1-sulfonamide]	5 to 50	< 35	1 to 10	35 to 70
O=C1CC[C@@H](N2Cc3cc(C[C@@H](O)CN4CCN(c5ccc(-c6cnc7[nH]cc(C(=O)c8c(F)ccc(NS(=O)(=O)N9CC[C@@H](F)C9)c8F)c7c6)cc5)CC4)ccc3C2=O)C(=O)N1 [Compound 73, (3R)-N-{3-[5-(4-{4-[(2R)-3-{2-[(3R)-2,6-dioxopiperidin-3-yl]-1-oxo-2,3-dihydro-1H-isoindol-5-yl}-2-hydroxypropyl]piperazin-1-yl}phenyl)-1H-pyrrolo[2,3-b]pyridine-3-carbonyl]-2,4-difluorophenyl}-3-fluoropyrrolidine-1-sulfonamide]	5 to 50	35 to 70	1 to 10	> 70
O=C1CC[C@H](N2Cc3cc(C[C@H](O)CN4CCN(c5ccc(-c6cnc7[nH]cc(C(=O)c8c(F)ccc(NS(=O)(=O)N9CC[C@@H](F)C9)c8F)c7c6)cc5)CC4)ccc3C2=O)C(=O)N1 [Compound 74]	5 to 50	35 to 70	1 to 10	> 70
O=C1CC[C@@H](N2Cc3cc(C[C@H](O)CN4CCN(c5ccc(-c6cnc7[nH]cc(C(=O)c8c(F)ccc(NS(=O)(=O)N9CC[C@@H](F)C9)c8F)c7c6)cc5)CC4)ccc3C2=O)C(=O)N1 [Compound 75, (3R)-N-{3-[5-(4-{4-[(2S)-3-{2-[(3R)-2,6-dioxopiperidin-3-yl]-1-oxo-2,3-dihydro-1H-isoindol-5-yl}-2-hydroxypropyl]piperazin-1-yl}phenyl)-1H-pyrrolo[2,3-b]pyridine-3-carbonyl]-2,4-difluorophenyl}-3-fluoropyrrolidine-1-sulfonamide]	< 5	35 to 70	1 to 10	> 70
O=C1CC[C@H](N2Cc3cc(CN4C[C@@H]5CN(c6ccc(-c7cnc8[nH]cc(C(=O)c9c(F)ccc(NS(=O)(=O)N%10CC[C@@H](F)C%10)c9F)c8c7)cc6)C[C@@H]5C4)ccc3C2=O)C(=O)N1 [Compound 76, (3R)-N-[3-(5-{4-[(3aR,6aS)-5-({2-[(3S)-2,6-dioxopiperidin-3-yl]-1-oxo-2,3-dihydro-1H-isoindol-5-yl}methyl)-octahydropyrrolo[3,4-c]pyrrol-2-yl]phenyl}-1H-pyrrolo[2,3-b]pyridine-3-carbonyl)-2,4-difluorophenyl]-3-fluoropyrrolidine-1-sulfonamide]	5 to 50	35 to 70	> 30	
O=C1CC[C@@H](N2Cc3cc(CN4C[C@@H]5CN(c6ccc(-c7cnc8[nH]cc(C(=O)c9c(F)ccc(NS(=O)(=O)N%10CC[C@@H](F)C%10)c9F)c8c7)cc6)C[C@@H]5C4)ccc3C2=O)C(=O)N1 [Compound 77, (3R)-N-[3-(5-{4-[(3aR,6aS)-5-({2-[(3R)-2,6-dioxopiperidin-3-yl]-1-oxo-2,3-dihydro-1H-isoindol-5-yl}methyl)-octahydropyrrolo[3,4-c]pyrrol-2-yl]phenyl}-1H-pyrrolo[2,3-b]pyridine-3-carbonyl)-2,4-difluorophenyl]-3-fluoropyrrolidine-1-sulfonamide]	5 to 50	35 to 70	> 30	
O=C1CCC(N2Cc3cc(CN4CCN(c5ccc(-c6cnc7[nH]cc(C(=O)c8c(F)ccc(NS(=O)(=O)N9CC[C@@H](F)C9)c8F)c7c6)cc5)C[C@@H]4CO)ccc3C2=O)C(=O)N1 (stereo partly drawn) [Compound 78, (3R)-N-[3-(5-{4-[(3R)-4-{[2-(2,6-dioxopiperidin-3-yl)-1-oxo-2,3-dihydro-1H-isoindol-5-yl]methyl}-3-(hydroxymethyl)piperazin-1-yl]phenyl}-1H-pyrrolo [2,3-b]pyridine-3-carbonyl)-2,4-difluorophenyl]-3-fluoropyrrolidine-1-sulfonamide]	> 500	> 70	> 30	
COc1cc(N2CC(N3CCN(c4ccc(-c5cnc6[nH]cc(C(=O)c7c(F)ccc(NS(=O)(=O)N8CC[C@@H](F)C8)c7F)c6c5)cc4)CC3)C2)cc2c1C(=O)N(C1CCC(=O)NC1=O)C2 (stereo partly drawn) [Compound 79, (3R)-N-(3-{5-[4-(4-{1-[2-(2,6-dioxopiperidin-3-yl)-7-methoxy-1-oxo-2,3-dihydro-1H-isoindol-5-yl]azetidin-3-yl}piperazin-1-yl)phenyl]-1H-pyrrolo[2,3-b]pyridine-3-carbonyl}-2,4-difluorophenyl)-3-fluoropyrrolidine-1-sulfonamide]	5 to 50	35 to 70	> 30	
O=C1CC[C@H](N2Cc3cc(OCCCN4CC5(C4)CN(c4ccc(-c6cnc7[nH]cc(C(=O)c8c(F)ccc(NS(=O)(=O)N9CC[C@@H](F)C9)c8F)c7c6)cc4)C5)ccc3C2=O)C(=O)N1 [Compound 80, (3R)-N-{3-[5-(4-{6-[3-({2-[(3S)-2,6-dioxopiperidin-3-yl]-1-oxo-2,3-dihydro-1H-isoindol-5-yl}oxy)propyl]-2,6-diazaspiro[3.3]heptan-2-yl}phenyl)-1H-pyrrolo[2,3-b]pyridine-3-carbonyl]-2,4-difluorophenyl}-3-fluoropyrrolidine-1-sulfonamide]	< 5	35 to 70	1 to 10	> 70
O=C1CC[C@@H](N2Cc3cc(OCCCN4CC5(C4)CN(c4ccc(-c6cnc7[nH]cc(C(=O)c8c(F)ccc(NS(=O)(=O)N9CC[C@@H](F)C9)c8F)c7c6)cc4)C5)ccc3C2=O)C(=O)N1 [Compound 81, (3R)-N-{3-[5-(4-{6-[3-({2-[(3R)-2,6-dioxopiperidin-3-yl]-1-oxo-2,3-dihydro-1H-isoindol-5-yl}oxy)propyl]-2,6-diazaspiro[3.3]heptan-2-yl}phenyl)-1H-pyrrolo[2,3-b]pyridine-3-carbonyl]-2,4-difluorophenyl}-3-fluoropyrrolidine-1-sulfonamide]	5 to 50	35 to 70	1 to 10	> 70
O=C1CC[C@H](N2Cc3cc(C[C@@H](O)CN4CCN(c5ccc(-c6cnc7[nH]cc(C(=O)c8c(F)ccc(NS(=O)(=O)N9CC[C@@H](F)C9)c8F)c7c6)cc5)CC4)ccc3C2=O)C(=O)N1 [Compound 82, (3R)-N-{3-[5-(4-{4-[(2R)-3-{2-[(3S)-2,6-dioxopiperidin-3-yl]-1-oxo-2,3-dihydro-1H-isoindol-5-yl}-2-hydroxypropyl]piperazin-1-yl}phenyl)-1H-pyrrolo[2,3-b]pyridine-3-carbonyl]-2,4-difluorophenyl}-3-fluoropyrrolidine-1-sulfonamide]	5 to 50	35 to 70	> 30	
O=C1CC[C@H](N2Cc3cc(C4CN(CC5CCN(c6ccc(-c7cnc8[nH]cc(C(=O)c9c(F)ccc(NS(=O)(=O)N%10CC[C@@H](F)C%10)c9F)c8c7)cc6)CC5)C4)ccc3C2=O)C(=O)N1 [Compound 83, (3R)-N-{3-[5-(4-{4-[(3-{2-[(3S)-2,6-dioxopiperidin-3-yl]-1-oxo-2,3-dihydro-1H-isoindol-5-yl}azetidin-1-yl)methyl]piperidin-1-yl}phenyl)-1H-pyrrolo[2,3-b]pyridine-3-carbonyl]-2,4-difluorophenyl}-3-fluoropyrrolidine-1-sulfonamide]	50 to 500	> 70	< 1	35 to 70
O=C1CC[C@@H](N2Cc3cc(C4CN(CC5CCN(c6ccc(-c7cnc8[nH]cc(C(=O)c9c(F)ccc(NS(=O)(=O)N%10CC[C@@H](F)C%10)c9F)c8c7)cc6)CC5)C4)ccc3C2=O)C(=O)N1 [Compound 84, (3R)-N-{3-[5-(4-{4-[(3-{2-[(3R)-2,6-dioxopiperidin-3-yl]-1-oxo-2,3-dihydro-1H-isoindol-5-yl}azetidin-1-yl)methyl]piperidin-1-yl}phenyl)-1H-pyrrolo[2,3-b]pyridine-3-carbonyl]-2,4-difluorophenyl}-3-fluoropyrrolidine-1-sulfonamide]	5 to 50	35 to 70	< 1	> 70
